According to patent US12329729B1, “Method of treating cancer in a subject” (IMAM MOHAMMAD IBN SAUD ISLAMIC UNIVERSITY, priority 2024, dated 2025):
In brackets after ≈: the same amount, converted by molar mass.

What was measured:
Assay type in all cases: cell-based
[1] = test system: PC3; experiment: IC50 towards PC3 cancer cell line; details: Homo sapiens, PC-3
[2] = test system: FaDu; experiment: IC50 towards FaDu cancer cell line; details: Homo sapiens
[3] = test system: A549; experiment: IC50 towards A549 cancer cell line; details: Homo sapiens
[4] = test system: MDA-MB-468; experiment: IC50 towards MDA-MB-468 cancer cell line; details: Homo sapiens
[5] = test system: HeLa; experiment: IC50 towards HeLa cancer cell line; details: Homo sapiens
[6] = test system: p53; experiment: Upregulation of pro-apoptotic protein p53; details: compared to the control (untreated) cells
[7] = test system: BAX; experiment: Upregulation of pro-apoptotic protein BAX; details: compared to the control (untreated) cells
[8] = test system: Caspase 3; experiment: Upregulation of pro-apoptotic protein Caspase 3; details: compared to the control (untreated) cells
[9] = test system: Caspase 6; experiment: Upregulation of pro-apoptotic protein Caspase 6; details: compared to the control (untreated) cells
[10] = test system: Caspase 8; experiment: Upregulation of pro-apoptotic protein Caspase 8; details: compared to the control (untreated) cells
[11] = test system: Caspase 9; experiment: Upregulation of pro-apoptotic protein Caspase 9; details: compared to the control (untreated) cells
[12] = test system: BCL-2; experiment: Downregulation of anti-apoptotic protein BCL-2; details: compared to the control (untreated) cells
[13] = test system: MMP2; experiment: Downregulation of; details: compared to the control (untreated) cells
[14] = test system: MMP9; experiment: Downregulation of; details: compared to the control (untreated) cells
[15] = test system: COX-2; experiment: Downregulation of pro-inflammatory marker COX-2; details: compared to the control (untreated) cells
[16] = test system: IL-6; experiment: Downregulation of; details: compared to the control (untreated) cells
[17] = test system: IL-1β; experiment: Downregulation of pro-inflammatory marker IL-1β; details: compared to the control (untreated) cells

| SMILES | IC50 [1] [µg/mL] | IC50 [2] [µg/mL] | IC50 [3] [µg/mL] | IC50 [4] [µg/mL] | IC50 [5] [µg/mL] | upregulation of p53 [6] [fold changes] | upregulation of BAX [7] [fold changes] | upregulation of Caspase 3 [8] [fold changes] | upregulation of Caspase 6 [9] [fold changes] | upregulation of Caspase 8 [10] [fold changes] | upregulation of Caspase 9 [11] [fold changes] | downregulation of BCL-2 [12] [fold changes] | downregulation of MMP2 [13] [fold changes] | downregulation of MMP9 [14] [fold changes] | downregulation of COX-2 [15] [fold changes] | downregulation of IL-6 [16] [fold changes] | downregulation of IL-1β [17] [fold changes] |
| --- | --- | --- | --- | --- | --- | --- | --- | --- | --- | --- | --- | --- | --- | --- | --- | --- | --- |
| COc1cccc2c1C(=O)c1c(O)c3c(c(O)c1C2=O)C[C@@](O)(C(=O)CO)C[C@@H]3O[C@H]1C[C@H](N)[C@H](O)[C@H](C)O1 [doxorubicin, reference compound] | 5.83 (≈ 10.7 µM) | 13.1 (≈ 24.1 µM) | – | – | – | – | – | – | – | – | – | – | – | – | – | – | – |
| CCOc1ccc(Oc2ccc(/C=N/c3ccc([Se][Se]c4ccc(/N=C/c5ccc(Oc6ccc(OCC)cc6)cc5)cc4)cc3)cc2)cc1 [YS9, N,N′-(Diselanediylbis(4,1-phenylene))bis(1-(4-(4-ethoxyphenoxy)phenyl)methanimine)] | 12 (≈ 15.1 µM) | 4.73 (≈ 5.98 µM) | 4.4 (≈ 5.56 µM) | 6 (≈ 7.59 µM) | 4 (≈ 5.06 µM) | 3.50 | 1.95 | 5.82 | 10.37 | 3.16 | 2.41 | 0.35 | 0.31 | 0.48 | 0.37 | 0.48 | 0.46 |
